Reference: patent publication US20240209028A1, “CNP COMPOUNDS” (priority 2022, published 2024)
Starred links: 1 amine or outer side, 2 acyl side, 3 side chain; linkers in the order of their positions; H or OH if unused. Positions of bridges follow the written chain, without caps; N, C: chain ends. Residues, ends and D or L forms follow the SMILES beside them. *: point of attachment. C18 diacid = O=C(O)CCCCCCCCCCCCCCCCC(=O)*; γGlu = O=C(O)[C@H](CCC(=O)[*:2])N[*:1]; AEEA = NCCOCCOCC(=O)O

Experiment: PK of CNP compounds after i.v. and s.c. administration to rats
Settings: male, Sprague Dawley, in vivo, iv, rat, i.v., about 100 nmol/kg; for clearance: read-out: Cl (L/hr/kg), i.v. administration (converted); for half-life: read-out: T½ (hr), i.v. administration (converted)
Outline: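 Male Sprague Dawley rats (n=4-6) were dosed at 300 nmol/kg s.c. or 100 nmol/kg i.v., formulated at pH 7.4 or 4.0, and sampled up to 72 h. Plasma levels were measured by TF-LC-MS against calibrators from 0.5 to 2000 nM. Non-compartmental PK used dose-normalized AUC for bioavailability, with values given as means.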

CC[C@H](C)[C@@H]1NC(=O)[C@H](CCCNC(=N)N)NC(=O)[C@H](CC(=O)O)NC(=O)[C@H](CC(C)C)NC(=O)[C@@H]2CCCN2C(=O)[C@H](CC(C)C)NC(=O)CNC(=O)[C@H](Cc2ccccc2)NC(=O)[C@@H](NC(=O)CNC(=O)[C@H](CCCCN)NC(=O)[C@H](CO)NC(=O)[C@H](CC(C)C)NC(=O)CNC(=O)[C@H](CCCCN)NC(=O)[C@H](CCCCN)NC(=O)[C@H](CCC(N)=O)NC(=O)[C@H](C)NC(=O)CNC(=O)[C@H](CCC(=O)O)NC(=O)[C@H](Cc2ccc(O)cc2)NC(=O)COCCOCCNC(=O)COCCOCCNC(=O)COCCOCCNC(=O)COCCOCCNC(=O)CC[C@H](NC(=O)CCCCCCCCCCCCCCCCC(=O)O)C(=O)O)CSSC[C@@H](C(=O)O)NC(=O)CNC(=O)[C@H](CC(C)C)NC(=O)CNC(=O)[C@H](CO)NC(=O)[C@H](CC(C)C)NC(=O)[C@H](CO)NC(=O)CNC1=O [compound 1375] ({C18 diacid-γGlu-AEEA-AEEA-AEEA-AEEA}-YEGAQKKGLSKGCFGLPLDRIGSLSGLGC-OH; disulfide 13-29; C-terminus assumed)
clearance: 0.0057 L/h/kg | half-life: 9.66 h

CC[C@H](C)[C@@H]1NC(=O)[C@H](CCCNC(=N)N)NC(=O)[C@H](CC(=O)O)NC(=O)[C@H](CC(C)C)NC(=O)[C@@H]2CCCN2C(=O)[C@H](CC(C)C)NC(=O)CNC(=O)[C@H](Cc2ccccc2)NC(=O)[C@@H](NC(=O)CNC(=O)[C@H](CCCCN)NC(=O)[C@H](CO)NC(=O)CNC(=O)CNC(=O)[C@H](CCCCN)NC(=O)[C@H](CCCCN)NC(=O)[C@H](CCC(N)=O)NC(=O)[C@H](C)NC(=O)CNC(=O)[C@H](CCC(=O)O)NC(=O)[C@H](Cc2ccc(O)cc2)NC(=O)COCCOCCNC(=O)COCCOCCNC(=O)CC[C@H](NC(=O)CCCCCCCCCCCCCCCCC(=O)O)C(=O)O)CSSC[C@@H](C(=O)O)NC(=O)CNC(=O)[C@H](CC(C)C)NC(=O)CNC(=O)[C@H](CO)NC(=O)[C@H](CC(C)C)NC(=O)[C@H](CO)NC(=O)CNC1=O [compound 1377] ({C18 diacid-γGlu-AEEA-AEEA}-YEGAQKKGGSKGCFGLPLDRIGSLSGLGC-OH; disulfide 13-29)
clearance: 0.00747 L/h/kg | half-life: 6.29 h

CC[C@H](C)[C@@H]1NC(=O)[C@H](CCCNC(=N)N)NC(=O)[C@H](CC(=O)O)NC(=O)[C@H](CC(C)C)NC(=O)[C@@H]2CCCN2C(=O)[C@H](CC(C)C)NC(=O)CNC(=O)[C@H](Cc2ccccc2)NC(=O)[C@@H](NC(=O)CNC(=O)[C@H](CO)NC(=O)[C@H](CO)NC(=O)[C@H](CC(C)C)NC(=O)CNC(=O)[C@H](CCCCN)NC(=O)[C@H](CCCCN)NC(=O)[C@H](CCC(N)=O)NC(=O)[C@H](C)NC(=O)CNC(=O)[C@H](CCC(=O)O)NC(=O)[C@H](Cc2ccc(O)cc2)NC(=O)CNC(=O)CNC(=O)CNC(=O)COCCOCCNC(=O)COCCOCCNC(=O)CC[C@H](NC(=O)CCCCCCCCCCCCCCCCC(=O)O)C(=O)O)CSSC[C@@H](C(=O)O)NC(=O)CNC(=O)[C@H](CC(C)C)NC(=O)CNC(=O)[C@H](CO)NC(=O)[C@H](CC(C)C)NC(=O)[C@H](CO)NC(=O)CNC1=O [compound 1378] ({C18 diacid-γGlu-AEEA-AEEA}-GGGYEGAQKKGLSSGCFGLPLDRIGSLSGLGC-OH; disulfide 16-32)
clearance: 0.00926 L/h/kg | half-life: 5.29 h
